Results from US20190274303A1, “USE OF A DIFLUORO-(2-HYDROXYPROPYL)PYRIDINE COMPOUND AS A FUNGICIDE FOR CONTROL OF PHYTOPATHOGENIC FUNGI OF BARLEY” (Dow AgroSciences LLC, priority 2016, published 2019).

Legend:
Format in all cases: in vivo
[1] = tested on: Puccinia hordei (PUCCHD); test: Field assessment of barley rust; conditions: for Percent Control PUCCHD: based on AUDPC, winter barley, field
Protocol: Field Assessment of Puccinia hordei (PUCCHD) in Barley:
(§1) A fungicidal treatment containing Compound I was assessed against barley rust (PUCCHD) in two separate field trials. In each trial, fungicidal treatments of Compound I were applied using two separate adjuvant systems. In the first system, an EC formulation of compound I was tank mixed with Agnique BP-420 (50%) at an active:adjuvant ratio of 1:2. The second adjuvant system was an SC formulation of Compound I tank mixed with Agnique BP-420 EW (38.5%) at an active:adjuvant ratio of 1:2 and Agnique FOH TDA-9 (30% w/w) applied at 0.33% V/V. Both the EC and SC formulation was sprayed on barley plants at rates of 25, 50, 75, 100, 150, 200 and 250 grams active ingredient per hectare (g ai/ha). Fungicidal treatments were applied at B39 (early curative, 1% infection on leaf 1) growth stage of winter barley (HORVW, Maris Otter and Lomerit variety) under natural infection of PUCCHD. The treatment was part of an experimental trial designed as a randomized complete block with four replications.
(§2) Disease severity was recorded as a percentage of visual diseased foliage on whole plot. Barley rust infection was recorded following EPPO PP1/26 guideline prescriptions. Area under the disease progress curve (AUDPC) was calculated for each plot using the sets of recorded severity data. Relative AUDPC (% control based on AUDPC) was calculated as percent of the nontreated control.
(§3) In each case of the following Tables, the rating scale of percent control based on AUDPC is as follows: […]

[2] = tested on: Rhyncosporium secalis (RHYNSE); test: Field assessment of barley leaf scald, Trial 2 (EC and SC formulations); conditions: based on AUDPC, winter barley
Text: as §1, with “Trial 2: Fungicidal” for “A fungicidal treatment containing Compound I was assessed against barley rust (PUCCHD) in two separate field trials. In each trial, fungicidal”, “Otter” for “Otter and Lomerit”, “RHYNSE.” for “PUCCHD.”
as §2, with “leaf scald” for “rust”
as §3

[3] = tested on: Pyrenophora teres (PYRNTE); test: Field assessment of net blotch of barley; conditions: for Percent Control PYRNTE: based on AUDPC, barley, field
Protocol: Field Assessment of Pyrenophora teres (PYRNTE) in Barley:
A fungicidal treatment containing Compound I was assessed against net blotch of barley (PYRNTE) in two separate field trials. In each trial, fungicidal treatments of Compound I were applied using two separate adjuvant systems. In the first system, an EC formulation of compound I was tank mixed with Agnique BP-420 (50%) at an active:adjuvant ratio of 1:2. The second adjuvant system was an SC formulation of Compound I tank mixed with Agnique BP-420 EW (38.5%) at an active:adjuvant ratio of 1:2 and Agnique FOH TDA-9 (30% w/w) applied at 0.33% V/V. Both the EC and SC formulation was sprayed on barley plants at rates of 25, 50, 75, 100, 150, 200 and 250 grams active ingredient per hectare (g ai/ha). In the first trial, fungicidal treatments of Compound I were applied at B39 (early curative, 1% infection on leaf 1) growth stage of winter barley (HORVW, Lomerit variety) under natural infection of PYRNTE. The treatment was part of an experimental trial designed as a randomized complete block with four replications. In the second trial, fungicidal treatments of Compound I were applied at B37 (protectant, 1% infection on leaf 4) growth stage of spring barley (HORVS, Scarlett variety) under natural infection of PYRNTE. The treatment was part of an experimental trial designed as a randomized complete block with four replications.
as §2, with “Net blotch of barley” for “Barley rust”
as §3

[4] = 25 g ai/ha, EC + Agnique BP-420
[5] = 25 g ai/ha, SC + Agnique BP-420 EW and Agnique FOH TDA-9
[6] = 50 g ai/ha, EC + Agnique BP-420
[7] = 75 g ai/ha, EC + Agnique BP-420
[8] = 75 g ai/ha, SC + Agnique BP-420 EW and Agnique FOH TDA-9
[9] = 100 g ai/ha, EC + Agnique BP-420
[10] = 100 g ai/ha, SC + Agnique BP-420 EW and Agnique FOH TDA-9
[11] = 150 g ai/ha, EC + Agnique BP-420
[12] = 150 g ai/ha, SC + Agnique BP-420 EW and Agnique FOH TDA-9
[13] = 200 g ai/ha, EC + Agnique BP-420
[14] = 200 g ai/ha, SC + Agnique BP-420 EW and Agnique FOH TDA-9
[15] = 250 g ai/ha, EC + Agnique BP-420
[16] = 250 g ai/ha, SC + Agnique BP-420 EW and Agnique FOH TDA-9
[17] = 50 g ai/ha, SC + Agnique BP-420 EW and Agnique FOH TDA-9

N#Cc1ccc(Oc2ccc(C(F)(F)C(O)(Cn3ncnc3S)c3ccc(F)cc3F)nc2)cc1 (centres unmarked) [Compound I, 4-((6-(2-(2,4-difluorophenyl)-1,1-difluoro-2-hydroxy-3-(5-mercapto-1H-1,2,4-triazol-1-yl)propyl)pyridin-3-yl)oxy)benzonitrile]
fungicidal effect on Puccinia Hordei ([1]; barley rust, general statement): significant fungicidal effect | Percent Control PUCCHD [1, 4]: B (51-74) | Percent Control PUCCHD [1, 5]: B (51-74) | Percent Control PUCCHD [1, 6]: B (51-74) | Percent Control PUCCHD ([1]; 50 g ai/ha, Sc (SC + Agnique BP-420 EW and Agnique FOH TDA-9)): B (51-74) | Percent Control PUCCHD [1, 7]: A (75-100) | Percent Control PUCCHD [1, 8]: B (51-74) | Percent Control PUCCHD [1, 9]: A (75-100) | Percent Control PUCCHD [1, 10]: A (75-100) | Percent Control PUCCHD [1, 11]: A (75-100) | Percent Control PUCCHD [1, 12]: A (75-100) | Percent Control PUCCHD [1, 13]: A (75-100) | Percent Control PUCCHD [1, 14]: A (75-100) | Percent Control PUCCHD [1, 15]: A (75-100) | Percent Control PUCCHD [1, 16]: A (75-100) | Percent Control RHYNSE [2, 4]: C (26-50) | Percent Control RHYNSE [2, 5]: C (26-50) | Percent Control RHYNSE [2, 6]: C (26-50) | Percent Control RHYNSE [2, 17]: C (26-50) | Percent Control RHYNSE [2, 7]: B (51-74) | Percent Control RHYNSE [2, 8]: C (26-50) | Percent Control RHYNSE [2, 9]: B (51-74) | Percent Control RHYNSE [2, 10]: C (26-50) | Percent Control RHYNSE [2, 11]: B (51-74) | Percent Control RHYNSE [2, 12]: B (51-74) | Percent Control RHYNSE [2, 13]: B (51-74) | Percent Control RHYNSE [2, 14]: B (51-74) | Percent Control RHYNSE [2, 15]: B (51-74) | Percent Control RHYNSE [2, 16]: B (51-74) | Percent Control PYRNTE [3, 4]: D (1-25) | Percent Control PYRNTE [3, 5]: D (1-25) | Percent Control PYRNTE [3, 6]: D (1-25) | Percent Control PYRNTE [3, 17]: D (1-25) | Percent Control PYRNTE [3, 7]: D (1-25) | Percent Control PYRNTE [3, 8]: D (1-25) | Percent Control PYRNTE [3, 9]: D (1-25) | Percent Control PYRNTE [3, 10]: C (26-50) | Percent Control PYRNTE [3, 11]: C (26-50) | Percent Control PYRNTE [3, 12]: C (26-50) | Percent Control PYRNTE [3, 13]: C (26-50) | Percent Control PYRNTE [3, 14]: B (51-74) | Percent Control PYRNTE [3, 15]: B (51-74) | Percent Control PYRNTE [3, 16]: B (51-74) | fungicidal effect on Pyrenophora teres ([3]; net blotch of barley, general statement): significant fungicidal effect
